Experimental data: ChEMBL document CHEMBL1131527, “Estradiol-mimetic probes. Preparation of 17 alpha-(6-aminohexynyl)estradiol biotin, fluorescein and acridinium conjugates” (Bioorg Med Chem Lett, 1998)

Assay: Equilibrium dissociation constant of the compound
Assay type: ADME

Row | Kd | Compound
1 | 97.3 nM | C[C@]12CC[C@@H]3c4ccc(O)cc4CC[C@H]3[C@@H]1CC[C@@]2(O)C#CCCCCNC(=O)c1ccc2c(c1)C(=O)OC21c2ccc(O)cc2Oc2cc(O)ccc21
2 | 198 nM | Cc1ccc(S(=O)(=O)N(CCCC(=O)NCCCCC#C[C@]2(O)CC[C@H]3[C@@H]4CCc5cc(O)ccc5[C@H]4CC[C@@]32C)C(=O)c2c3ccccc3[n+](CCCS(=O)(=O)[O-])c3ccccc23)cc1
3 | 141 nM | C[C@]12CC[C@@H]3c4ccc(O)cc4CC[C@H]3[C@@H]1CC[C@@]2(O)C#CCCCCNC(=O)CCCCC1SC[C@@H]2NC(=O)N[C@H]12 (stereo partly drawn)
